Consider 8 compounds from US20070243182A1, “Use of Carboxypeptidease G for Combating Antifolate Toxicity” (Protherics Medicines Development Limited, priority 2004, published 2007).

Structures are written as SMILES. Read-outs that look alike come from different tables or passages of the source.

In data set [1] the target is T1, CPG2 (Pseudomonas sp., UniProt P06621). To be noted: substrate of CPG2; Sherwood et al (1985); cited from earlier work.
Data set [2] relates to bone marrow cells. Conditions: MTX 100 μM, leucovorin calcium 1,000 μM; cited from earlier work.
Data set [3] concerns the target T1, CPG2. Format: biochemical, Pseudomonas sp. strain RS-16. The method, then: A stock solution of 10 mM Tomudex in 100 mM Tris-HCl pH7.3 was prepared and used to prepare a series of dilutions from 0-100 μM in 100 mM Tris-HCl pH 7.3. 990 μl of each dilution was placed in a quartz cuvette and pre-warmed to 37° C. 10 μl of enzyme solution was added to initiate the reaction and the progress of the reaction was followed by measuring the rate of change in absorbance at 356 nm.
Measurement of the rate of reaction at a range of substrate concentrations, from 1-100 μM allows the Km and kcat for the enzyme to be determined using appropriate computer software such as “Enzfitter” (Biosoft; Cambridge, UK).
A stock solution of 10 mM LY309887 in 100 mM Tris-HCl pH7.3 is prepared and used to prepare a series of dilutions from 0-100 μM in 100 mM Tris-HCl pH 7.3. 990 μl of each dilution is placed in a quartz cuvette and pre-warned to 37° C. 10 μl of enzyme solution is added to initiate the reaction and the progress of the reaction is followed by measuring the rate of change in absorbance at a suitable wavelength. […] Measurement of the rate of reaction at a range of substrate concentrations, from 1-100 μM allows the Km and kcat for the enzyme to be determined using Enzfitter computer software.
A stock solution of 10 mM AG2034 in 100 mM Tris-HCl pH7.3 is prepared and used to prepare a series of dilutions from 0-100 μM in 100 mM Tris-HCl pH 7.3. 990 μl of each dilution is placed in a quartz cuvette and pre-warmed to 37° C. 10 μl of enzyme solution is added to initiate the reaction and the progress of the reaction is followed by measuring the rate of change in absorbance at a suitable wavelength. […] Measurement of the rate of reaction at a range of substrate concentrations, from 1-100 μM allows the Km and kcat for the enzyme to be determined using Enzfitter computer software.
A stock solution of 10 mM AG2037 in 100 mM Tris-HCl pH7.3 is prepared and used to prepare a series of dilutions from 0-100 μM in 100 mM Tris-HCl pH 7.3. 990 μl of each dilution is placed in a quartz cuvette and pre-warmed to 37° C. 10 μl of enzyme solution is added to initiate the reaction and the progress of the reaction is followed by measuring the rate of change in absorbance at a suitable wavelength. […] Measurement of the rate of reaction at a range of substrate concentrations, from 1-100 μM allows the Km and kcat for the enzyme to be determined using Enzfitter computer software.

Data set [4] is described as follows: Rescue of Tomudex toxicity in a patient by administration of CPG2 (with or without thymidine). Format: in vivo. To be noted: thymidine given together with CPG2 to a patient with toxic plasma levels of Tomudex.
Method: A patient who has been administered Tomudex and has toxic plasma levels of Tomudex is administered a dose of 50 Units per kg body weight of CPG2 by intravenous injection over a period of about 5 minutes.
A patient who has been administered Tomudex and has toxic plasma levels of Tomudex is administered a dose of 50 Units per kg body weight of CPG2 by intravenous injection over a period of about 5 minutes and is also administered thymidine.
For data set [5] the following is noted: 3-weekly schedule, paediatric population; cited from earlier work.
Setting [6] is: example in present tense, no values given.
[7] abbreviates: substrate of CPG2, spectrophotometric assay, 100 mM Tris-HCl pH 7.3, 37° C., 356 nm.

T1 sequence (P06621 23-415): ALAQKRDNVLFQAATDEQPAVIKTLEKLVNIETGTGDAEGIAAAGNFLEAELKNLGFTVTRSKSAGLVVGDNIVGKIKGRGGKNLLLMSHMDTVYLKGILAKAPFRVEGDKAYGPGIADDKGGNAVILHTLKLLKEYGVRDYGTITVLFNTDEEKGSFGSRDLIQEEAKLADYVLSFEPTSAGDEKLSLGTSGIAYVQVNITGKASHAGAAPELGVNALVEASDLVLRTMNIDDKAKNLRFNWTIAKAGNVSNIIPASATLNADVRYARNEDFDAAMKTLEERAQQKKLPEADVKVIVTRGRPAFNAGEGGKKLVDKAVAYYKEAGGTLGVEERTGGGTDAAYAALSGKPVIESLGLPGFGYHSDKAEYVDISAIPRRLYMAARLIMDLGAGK

`CN1c2c(nc(N)[nH]c2=O)NCC1CNc1ccc(C(=O)N[C@@H](CCC(=O)O)C(=O)O)cc1` (some centres unmarked) [5-methyl THF]: the Km in data set [1] was 34 µM. For the compound `Nc1nc2c(c(=O)[nH]1)N(C=O)C(CNc1ccc(C(=O)N[C@@H](CCC(=O)O)C(=O)O)cc1)CN2` (some centres unmarked) [5-formyl TIE, 5-formyl tetrahydrofolic acid], the Michaelis constant (Km) in data set [1] was 120 µM. In the case of `Nc1nc(=O)c2c([nH]1)NCC(CNc1ccc(C(=O)N[C@@H](CCC(=O)[O-])C(=O)[O-])cc1)N2C=O.[Ca+2]` (some centres unmarked) [leucovorin calcium, calcium salt of 5-formyl tetrahydrofolic acid], the “protection of bone marrow cells from MTX toxicity” value in data set [2] is listed as “unable to protect bone marrow cells from toxicity”. In the case of `Nc1nc2c(c(=O)[nH]1)C[C@@H](CCc1ccc(C(=O)N[C@@H](CCC(=O)O)C(=O)O)s1)CN2` [LY309887], the “substrate of CPG2 (contacted with CPG2 in vitro)” value (“substrate of CPG2” for short) in data set [3] (setting [6]) is “found to be a substrate of CPG2”. Take `Cc1cn([C@H]2C[C@H](O)[C@@H](CO)O2)c(=O)[nH]c1=O` [thymidine]: the “rescue of cellular toxicity associated with Tomudex” value in data set [4] is listed as “rescues the cellular toxicity associated with the Tomudex”.

On to `Cc1cc(C(=O)N[C@@H](CCC(=O)O)C(=O)O)sc1CC[C@@H]1CNc2nc(N)[nH]c(=O)c2C1` [AG2037], for which the “substrate of CPG2” value in data set [3] (setting [6]) was “found to be a substrate of CPG2”. As for `Nc1nc2ncc(CNc3ccc(C(=O)N[C@@H](CCC(=O)O)C(=O)O)cc3)nc2c(=O)[nH]1` [folate], the Km in data set [1] was 4 µM. In the case of `Cc1nc2ccc(CN(C)c3ccc(C(=O)N[C@@H](CCC(=O)O)C(=O)O)s3)cc2c(=O)[nH]1` [Tomudex], the maximum tolerated dose in data set [5] is 6 mg/m^2. Further, in data set [3], the “substrate of CPG2” value is listed as “found to a substrate of CPG2”. In data set [3] (setting [7]), the Km is 7.8 µM and the kcat is 24 s⁻¹.

In general, Km refers to the concentration of substrate that gives half-maximal velocity. As a reminder, the kcat is the number of substrate molecules converted per active site and unit of time at saturation.
